Source: ChEMBL document CHEMBL5370543, “Discovery of 6-aryl-2-(3,4,5-trimethoxyphenyl)thiazole[3,2-b][1,2,4]triazoles as potent tubulin polymerization inhibitors” (Eur J Med Chem, 2023)
Calls of active or inactive are those of the source. The rule behind the calls is not given here.

How the values were obtained:
SGC-7901 [1] = experiment: Induction of cell cycle arrest in human SGC-7901 cells assessed as accumulation at S phase at 2 times IC50 incubated for 12 hrs by PI/RNase staining based flow cytometry (reference value: 46 %); format: functional
[2] = Selectivity index, ratio of IC50 for HUVEC cells to IC50 for human SGC-7901 cells; format: functional
[3] = Toxicity in Balb/c mouse allografted with mouse 4T1 cells assessed as decrease in body weight at 20 mg/kg, iv administered every other day measured for 12 days; format: organism-based; settings: in vivo, 288 h, time 12 day
Tubulin (Homo sapiens) [4] = target: T1, Tubulin (Homo sapiens) (UniProt P68371+Q9H4B7+P0DPH7+P68366+Q13509+Q71U36+P04350+Q3ZCM7+P07437+P68363+Q9BQE3+Q6PEY2+Q13885+Q9BVA1+Q9BUF5); experiment: (§1) Inhibition of tubulin polymerization (unknown origin) by fluorescence based assay; format: protein-complex assay
Tubulin = experiment: as §1; format: protein-complex assay, Homo sapiens
4T1 [5] = experiment: Antitumor activity against mouse 4T1 cells allografted in Balb/c mouse assessed as decrease in tumor volume at 20 mg/kg, iv administered every other day measured for 12 days; format: functional, organism-based; settings: time 12.0 day
SGC-7901 [6] = experiment: Induction of cell cycle arrest in human SGC-7901 cells assessed as accumulation at S phase at 2 times IC50 incubated for 24 hrs by PI/RNase staining based flow cytometry (reference value: 46 %); format: functional
SGC-7901 [7] = experiment: Induction of cell cycle arrest in human SGC-7901 cells assessed as accumulation at G2/M phase at 2 times IC50 incubated for 12 hrs by PI/RNase staining based flow cytometry (reference value: 10 %); format: functional
SGC-7901 [8] = experiment: Induction of cell cycle arrest in human SGC-7901 cells assessed as accumulation at G0/G1 phase at 2 times IC50 incubated for 6 hrs by PI/RNase staining based flow cytometry (reference value: 42 %); format: functional
4T1 [9] = experiment: Antitumor activity against mouse 4T1 cells allografted in Balb/c mouse assessed as tumor growth inhibition at 20 mg/kg, iv administered every other day measured for 12 days relative to control; format: functional; settings: 4T1, 288 h, time 12 day, read-out: TGI
SGC-7901 [10] = experiment: Induction of cell cycle arrest in human SGC-7901 cells assessed as accumulation at sub-G1 phase at 2 times IC50 incubated for 24 hrs by PI/RNase staining based flow cytometry (reference value: 2 %); format: functional
[11] = Cytotoxicity against HUVEC cells assessed as cell growth inhibition incubated for 72 hrs by MTT assay; format: toxicity, cell-based; settings: human
SGC-7901 [12] = experiment: Induction of cell cycle arrest in human SGC-7901 cells assessed as accumulation at G2/M phase at 2 times IC50 incubated for 48 hrs by PI/RNase staining based flow cytometry (reference value: 10 %); format: functional
4T1 [13] = experiment: Antitumor activity against mouse 4T1 cells allografted in Balb/c mouse assessed as tumor weight at 20 mg/kg, iv administered every other day measured after 12 days (reference value: 448 mg); format: functional; settings: time 12 day
SGC-7901 [14] = experiment: Induction of cell cycle arrest in human SGC-7901 cells assessed as accumulation at G2/M phase at 2 times IC50 incubated for 6 hrs by PI/RNase staining based flow cytometry (reference value: 10 %); format: functional
4T1 [15] = experiment: Antitumor activity against mouse 4T1 cells allografted in Balb/c mouse assessed as tumor growth inhibition at 10 mg/kg, iv administered every other day measured for 12 days relative to control; format: functional; settings: 4T1, 288 h, time 12 day, read-out: TGI
SGC-7901 [16] = experiment: Antiproliferative activity against human SGC-7901 cells assessed as cell growth inhibition incubated for 72 hrs by MTT assay; format: functional, cell-based; settings: SGC-7901, 72 h
SGC-7901 [17] = experiment: Induction of cell cycle arrest in human SGC-7901 cells assessed as accumulation at G2/M phase at 2 times IC50 incubated for 24 hrs by PI/RNase staining based flow cytometry (reference value: 10 %); format: functional
HT-1080 = experiment: Antiproliferative activity against human HT-1080 cells assessed as cell growth inhibition incubated for 72 hrs by MTT assay; format: functional, cell-based; settings: HT-1080, 72 h
SGC-7901 [18] = experiment: Induction of cell cycle arrest in human SGC-7901 cells assessed as accumulation at sub-G1 phase at 2 times IC50 incubated for 6 hrs by PI/RNase staining based flow cytometry (reference value: 2 %); format: functional
4T1 [19] = experiment: Cytotoxicity against mouse 4T1 cells assessed as cell growth inhibition incubated for 72 hrs by MTT assay; format: functional, cell-based; settings: 4T1, 72 h
SGC-7901 [20] = experiment: Induction of cell cycle arrest in human SGC-7901 cells assessed as accumulation at G0/G1 phase at 2 times IC50 incubated for 12 hrs by PI/RNase staining based flow cytometry (reference value: 42 %); format: functional
Tubulin (Homo sapiens) [21] = target: T1, Tubulin (Homo sapiens); experiment: Binding affinity to tubulin (unknown origin) at colchicine binding site assessed as tubulin-colchicine complex competition rate at 1.25 uM preincubated for 45 mins followed by colchicine addition by fluorescence based assay relative to control; format: protein-complex assay
4T1 [22] = experiment: Antitumor activity against mouse 4T1 cells allografted in Balb/c mouse assessed as tumor weight at 10 mg/kg, iv administered every other day measured after 12 days (reference value: 448 mg); format: functional; settings: time 12 day
SGC-7901 [23] = experiment: Induction of cell cycle arrest in human SGC-7901 cells assessed as accumulation at sub-G1 phase at 2 times IC50 incubated for 48 hrs by PI/RNase staining based flow cytometry (reference value: 2 %); format: functional
SGC-7901 [24] = experiment: Induction of cell cycle arrest in human SGC-7901 cells assessed as accumulation at S phase at 2 times IC50 incubated for 48 hrs by PI/RNase staining based flow cytometry (reference value: 46 %); format: functional
SGC-7901 [25] = experiment: Induction of cell cycle arrest in human SGC-7901 cells assessed as accumulation at G0/G1 phase at 2 times IC50 incubated for 48 hrs by PI/RNase staining based flow cytometry (reference value: 42 %); format: functional
SGC-7901 [26] = experiment: Induction of cell cycle arrest in human SGC-7901 cells assessed as accumulation at S phase at 2 times IC50 incubated for 72 hrs by PI/RNase staining based flow cytometry (reference value: 46 %); format: functional
SGC-7901 [27] = experiment: Induction of cell cycle arrest in human SGC-7901 cells assessed as accumulation at G0/G1 phase at 2 times IC50 incubated for 24 hrs by PI/RNase staining based flow cytometry (reference value: 42 %); format: functional
MCF7 = experiment: Antiproliferative activity against human MCF7 cells assessed as cell growth inhibition incubated for 72 hrs by MTT assay; format: functional, cell-based; settings: MCF7, 72 h
SGC-7901 [28] = experiment: Induction of cell cycle arrest in human SGC-7901 cells assessed as accumulation at sub-G1 phase at 2 times IC50 incubated for 72 hrs by PI/RNase staining based flow cytometry (reference value: 2 %); format: functional
SGC-7901 [29] = experiment: Induction of cell cycle arrest in human SGC-7901 cells assessed as accumulation at S phase at 2 times IC50 incubated for 6 hrs by PI/RNase staining based flow cytometry (reference value: 46 %); format: functional
SGC-7901 [30] = experiment: Induction of cell cycle arrest in human SGC-7901 cells assessed as accumulation at G2/M phase at 2 times IC50 incubated for 72 hrs by PI/RNase staining based flow cytometry (reference value: 10 %); format: functional
4T1 [31] = experiment: Antitumor activity against mouse 4T1 cells allografted in Balb/c mouse assessed as tumor growth inhibition at 5 mg/kg, iv administered every other day measured for 12 days relative to control; format: functional; settings: 4T1, 288 h, time 12 day, read-out: TGI
SGC-7901 [32] = experiment: Induction of cell cycle arrest in human SGC-7901 cells assessed as accumulation at sub-G1 phase at 2 times IC50 incubated for 12 hrs by PI/RNase staining based flow cytometry (reference value: 2 %); format: functional
Tubulin (Homo sapiens) [33] = target: T1, Tubulin (Homo sapiens); experiment: Disruption of microtubule organization in human SGC-7901 cells assessed as shrinkage of microtubule network around nucleus at 2 times IC50 incubated for 12 hrs by […] based analysis; format: cell-based
4T1 [34] = experiment: Antitumor activity against mouse 4T1 cells allografted in Balb/c mouse assessed as tumor weight at 5 mg/kg, iv administered every other day measured after 12 days (reference value: 448 mg); format: functional; settings: time 12 day

With `COc1cc(-c2nc3scc(-c4cc(Cl)cc(Cl)c4)n3n2)cc(OC)c1OC` the Activity (SGC-7901 [1]) was 31%, the “Ratio IC50” value [2] was 62.62 and the Activity [3] was “Non-Toxic”. For the same compound, the inhibition (Tubulin (Homo sapiens) [4]) was “Dose-Dependent Effect”, the IC50 (Tubulin) was 6870 nM and the Activity (4T1 [5]) was “Active”. It also gave an Activity (SGC-7901 [6]) of 21%, an Activity (SGC-7901 [7]) of 31% and an Activity (SGC-7901 [8]) of 36%. The inhibition in vivo at 20 mg/kg (4T1 [9]) was 84%, the Activity (SGC-7901 [10]) was 21% and the IC50 at 72 h [11] was 13200 nM. For the same compound, the Activity (SGC-7901 [12]) was 19%, the Activity (4T1 [13]) was 71.76 mg and the Activity (SGC-7901 [14]) was 13%. It also gave an inhibition in vivo at 10 mg/kg (4T1 [15]) of 58.1%, an IC50 (SGC-7901 [16]) of 210 nM and an Activity (SGC-7901 [17]) of 42%. The IC50 (HT-1080) was 1180 nM, the Activity (SGC-7901 [18]) was 2% and the IC50 (4T1 [19]) was 341 nM. It also gave an Activity (SGC-7901 [20]) of 21%, an Activity (Tubulin (Homo sapiens) [21]) of 37.9% and an Activity (4T1 [22]) of 187.74 mg. For the same compound, the Activity (SGC-7901 [23]) was 69%, the Activity (SGC-7901 [24]) was 8% and the Activity (SGC-7901 [25]) was 4%. The Activity (SGC-7901 [26]) was 3%, the Activity (SGC-7901 [27]) was 16% and the IC50 (MCF7) was 2130 nM. It also gave an Activity (SGC-7901 [28]) of 93%, an Activity (SGC-7901 [29]) of 49% and an Activity (SGC-7901 [30]) of 4%. For the same compound, the inhibition in vivo at 5 mg/kg (4T1 [31]) was 49.2%, the Activity (SGC-7901 [32]) was 17% and the Activity (Tubulin (Homo sapiens) [33]) was “Active”. It also gave an Activity (4T1 [34]) of 227.5 mg.
